# Assay results from ChEMBL document CHEMBL3272205, “Pyrazolodiazepines. 2. 4-Aryl-1,3-dialkyl-6,8-dihydropyrazolo[3,4-e] [1,4]diazepin-7(1H)-ones as antianxiety and anticonvulsant agents” (1977).
# Tests used:
# Format in all cases: functional
# Rattus norvegicus [1] = species: Rattus norvegicus; assay: Anticonvulsant activity in rat assessed as protection against pentylenetetrazole-induced clonic seizures; details: read-out: MED
# Rattus norvegicus [2] = species: Rattus norvegicus; assay: Antianxiety activity in Holtzman rat assessed as dose required to elicit increase in milk consumption; details: read-out: MED
# Rattus norvegicus [3] = species: Rattus norvegicus; assay: Ratio of diazepam MED to compound MED for antianxiety activity in Holtzman rat
SMILES,minimal effective dose (Rattus norvegicus [1]),minimal effective dose (Rattus norvegicus [2]),Ratio (Rattus norvegicus [3])
Cl.Cn1ncc2c1NC(=O)CN=C2c1ccccc1,250 mg/kg,> 80 mg/kg,–
Cc1nn(C)c2c1C(c1ccccc1)=NCC(=O)N2,16 mg/kg,10 mg/kg,–
Cc1nn(C)c2c1C(c1ccccc1)=NCC(=O)N2C,4 mg/kg,2.5 mg/kg,–
Cc1nn(C)c2c1C(c1ccccc1)=NCC(=O)N2C.Cl,4 mg/kg,2.5 mg/kg,–
Cc1nn(C)c2c1C(c1cccs1)=NCC(=O)N2,–,40 mg/kg,–
CCc1nn(C)c2c1C(c1ccccc1)=NCC(=O)N2,8 mg/kg,2.5 mg/kg,–
CCc1nn(C)c2c1C(c1ccccc1)=NCC(=O)N2C,4 mg/kg,1.25 mg/kg,–
Cc1nn(C)c2c1C(c1ccccc1Cl)=NCC(=O)N2,16 mg/kg,2.5 mg/kg,–
Cc1nn(C)c2c1C(c1ccccc1Cl)=NCC(=O)N2C.Cl,4 mg/kg,2.5 mg/kg,–
Cc1nn(C)c2c1C(c1cccc(Cl)c1)=NCC(=O)N2,> 500 mg/kg,> 40 mg/kg,–
Cc1nn(C)c2c1C(c1ccccc1F)=NCC(=O)N2,8 mg/kg,2.5 mg/kg,–
CCN1C(=O)CN=C(c2ccccc2F)c2c(C)nn(C)c21,32 mg/kg,5 mg/kg,–
CCc1nn(C)c2c1C(c1ccccc1F)=NCC(=O)N2,2 mg/kg,1.25 mg/kg,–
CCc1nn(C)c2c1C(c1ccccc1F)=NCC(=O)N2.Cl,2 mg/kg,1.25 mg/kg,–
CCc1nn(C)c2c1C(c1ccccc1F)=NCC(=O)N2C,4 mg/kg,1.25 mg/kg,–
CCc1nn(C)c2c1C(c1cccc(F)c1)=NCC(=O)N2,32 mg/kg,20 mg/kg,–
CCc1nn(C)c2c1C(c1cccc(F)c1)=NCC(=O)N2C,32 mg/kg,10 mg/kg,–
CCc1nn(C)c2c1C(c1ccc(F)cc1)=NCC(=O)N2,> 500 mg/kg,> 40 mg/kg,–
CCc1nn(C)c2c1C(c1ccc(F)cc1)=NCC(=O)N2C,> 500 mg/kg,> 40 mg/kg,–
Cc1nn(C)c2c1C(c1ccccc1Br)=NCC(=O)N2C,4 mg/kg,5 mg/kg,–

SMILES,minimal effective dose (Rattus norvegicus [1]),minimal effective dose (Rattus norvegicus [2]),Ratio (Rattus norvegicus [3])
Cc1nn(C)c2c1C(c1c(F)cccc1F)=NCC(=O)N2C,2 mg/kg,20 mg/kg,–
Cc1nn(C)c2c1C(c1ccccc1[N+](=O)[O-])=NCC(=O)N2C,8 mg/kg,–,–
Cc1nn(C)c2c1C(c1ccccc1N=[N+]=[N-])=NCC(=O)N2C,63 mg/kg,> 40 mg/kg,–
Cn1nc(Cl)c2c1NC(=O)CN=C2c1ccccc1,63 mg/kg,40 mg/kg,–
COc1nn(C)c2c1C(c1ccccc1F)=NCC(=O)N2C,8 mg/kg,10 mg/kg,–
CCc1nn(C)c2c1C(c1ccccc1Cl)=NCC(=O)N2,32 mg/kg,2.5 mg/kg,–
CCc1nn(C)c2c1C(c1ccccc1Cl)=NCC(=O)N2C,16 mg/kg,0.63 mg/kg,–
CC(C)c1nn(C)c2c1C(c1ccccc1Cl)=NCC(=O)N2,125 mg/kg,> 40 mg/kg,–
CC(C)c1nn(C)c2c1C(c1ccccc1Cl)=NCC(=O)N2C,63 mg/kg,> 40 mg/kg,–
CCCc1nn(C)c2c1C(c1ccccc1Cl)=NCC(=O)N2,250 mg/kg,> 40 mg/kg,–
CCCc1nn(C)c2c1C(c1ccccc1Cl)=NCC(=O)N2C,63 mg/kg,> 40 mg/kg,–
CCCCc1nn(C)c2c1C(c1ccccc1Cl)=NCC(=O)N2,> 500 mg/kg,> 40 mg/kg,–
CCCCc1nn(C)c2c1C(c1ccccc1Cl)=NCC(=O)N2C,125 mg/kg,> 40 mg/kg,–
CCn1nc(C)c2c1NC(=O)CN=C2c1ccccc1F,8 mg/kg,2.5 mg/kg,–
CCn1nc(C)c2c1N(C)C(=O)CN=C2c1ccccc1F,4 mg/kg,1.25 mg/kg,–
CCn1nc(C)c2c1NC(=O)CN=C2c1ccccc1Cl,8 mg/kg,5 mg/kg,–
CCn1nc(C)c2c1N(C)C(=O)CN=C2c1ccccc1Cl,4 mg/kg,0.63 mg/kg,–
C=CCN1C(=O)CN=C(c2ccccc2Cl)c2c(C)nn(CC)c21,63 mg/kg,> 40 mg/kg,–
CCCn1nc(C)c2c1NC(=O)CN=C2c1ccccc1Cl,63 mg/kg,40 mg/kg,–
CCCn1nc(C)c2c1N(C)C(=O)CN=C2c1ccccc1Cl,16 mg/kg,2.5 mg/kg,–

SMILES,minimal effective dose (Rattus norvegicus [1]),minimal effective dose (Rattus norvegicus [2]),Ratio (Rattus norvegicus [3])
Cc1nn(C(C)C)c2c1C(c1ccccc1Cl)=NCC(=O)N2,16 mg/kg,20 mg/kg,–
CCCCn1nc(C)c2c1NC(=O)CN=C2c1ccccc1Cl,32 mg/kg,40 mg/kg,–
CCCCn1nc(C)c2c1N(C)C(=O)CN=C2c1ccccc1Cl,16 mg/kg,40 mg/kg,–
CCCCn1nc(C)c2c1NC(=O)CN=C2c1cccc(Cl)c1,> 500 mg/kg,> 40 mg/kg,–
Cc1nn(C2CCCCC2)c2c1C(c1ccccc1Cl)=NCC(=O)N2,> 500 mg/kg,> 40 mg/kg,–
Cc1nn(C2CCCCC2)c2c1C(c1ccccc1Cl)=NCC(=O)N2C,63 mg/kg,> 40 mg/kg,–
Cc1nn(-c2ccccc2)c2c1C(c1ccccc1)=NCC(=O)N2,> 500 mg/kg,> 40 mg/kg,–
Cc1nn(-c2ccccc2)c2c1C(c1ccccc1Cl)=NCC(=O)N2,500 mg/kg,20 mg/kg,–
Cc1nn(C)c2c1C(c1ccccc1)=[N+]([O-])CC(=O)N2C,63 mg/kg,> 40 mg/kg,–
Cc1nn(C)c2c1C(c1ccccc1)=NC(O)C(=O)N2C (stereo not given),16 mg/kg,5 mg/kg,–
Cc1nn(C)c2c1C(c1ccccc1F)=[N+]([O-])CC(=O)N2C,8 mg/kg,10 mg/kg,–
CC(=O)OC1N=C(c2ccccc2F)c2c(C)nn(C)c2N(C)C1=O (stereo not given),8 mg/kg,20 mg/kg,–
Cc1nn(C)c2c1C(c1ccccc1F)=NC(O)C(=O)N2C (stereo not given),4 mg/kg,2.5 mg/kg,–
CCc1nn(C)c2c1C(c1ccccc1)NCC(=O)N2C.Cl (stereo not given),63 mg/kg,> 40 mg/kg,–
Cc1nn(C)c2c1C(c1ccccc1F)NCC(=O)N2C.Cl (stereo not given),4 mg/kg,1.2 mg/kg,–
CN1C(=O)CN=C(c2ccccc2)c2cc(Cl)ccc21 [DIAZEPAM],4 mg/kg,1.25 mg/kg,–
Cc1nn(C)c2c1C(c1ccccc1F)=NCC(=O)N2C.Cl [ZOLAZEPAM HYDROCHLORIDE],2 mg/kg,0.32 mg/kg,–
Cc1nn(C)c2c1C(c1ccccc1F)=NCC(=O)N2C [ZOLAZEPAM],2 mg/kg,0.32 mg/kg,5
